Where two headings read alike, the source gives them in different places.
Legend:
[1] = biological target: PKC; conditions: A-ring bryologs; read-out: affinity for PKC; cited from earlier work
[2] = system: cerebral ischemia-induced memory impairment; assay: water maze spatial learning and probe test after global ischemia (Example 2); assay type: in vivo, rat; conditions: for water maze spatial learning, ischemic with treatment vs. control rats: trained one week after last dose; for water maze spatial learning, ischemic with treatment vs. ischemic rats: treatment started 24 hours after hypoxia, bryostatin-1 20 μg/m^2 i.v. 2 doses/week 10 doses, MCDA 1.0 mg/kg i.p. daily 5 weeks
Procedure: Rats (male, Wistar, 200-225 g) were randomly divided into 6 groups (8 each) and housed for 1 week before experimentation. Transient or permanent restriction of cerebral blood flow and oxygen supply results in ischemic stroke. The global ischemia model used to induce vascular memory impairment was two-vessel occlusion combined with a short term systemic hypoxia. Ligation of the bilateral common carotid arteries was performed under anesthesia (pentobarbital, 60 mg/kg, i.p.). After a one-week recovery from the surgery, rats were exposed to 14-min hypoxia (5% oxygen in a glass jar). Control rats (sham operated and vehicle controls) were subjected to the same incision to isolate both common carotid arteries and to 14-min air (in the glass jar). Body temperature was kept at 37-37.5° C. using a heating light source during the surgical procedure and until the animals were fully recovered.
4-Methylcatechol-diacetic acid (MCDA, a potential NGF and BDNF booster) was administered at 1.0 mg/kg (i.p., daily for the same 5-week period) in separate groups of rats.
A visible platform test was given after the probe test.

[3] = system: NCI 60 cell line screen; conditions: cited from earlier work
[4] = biological target: protein kinase C; conditions: (−)-enantiomer; cited from earlier work
[5] = system: squamous cell carcinoma and melanoma; conditions: used topically; cited from earlier work
[6] = biological target: PKC; conditions: [3H]phorbol dibutyrate; read-out: Ki for binding; cited from earlier work
[7] = humans; cited from earlier work
[8] = system: cerebral ischemia/hypoxia-induced learning and memory impairment; assay: water maze spatial learning and memory after global cerebral ischemia/hypoxia (Example 3); assay type: in vivo, rat
Procedure: Global cerebral ischemia/hypoxia was induced in male Wistar rats (225-250 g) by permanently occluding the bilateral common carotid arteries, combined with about 14 minutes of low oxygen (about 5%). […] Spatial learning (2 trials/ day for 4 days) and memory (a probe test of 1 minute, 24 hours after the last trial) task was performed 9 days after the last dose. Overall, there was a significant difference between the groups (F3,255=31.856, p<0.001) and groups x trials (F21,255=1.648, p<0.05). Global cerebral ischemia impaired the spatial learning (ischemial vs. sham-operated F1,127=[…]).

[9] = system: PKC; conditions: K562 cells; cited from earlier work
[10] = system: cyclin dependent kinase 2 (Cdk2); conditions: at 5 ng/ml; cited from earlier work
[11] = system: murine leukemias and solid tumors; conditions: cited from earlier work
[12] = biological target: T1, PKCε (Homo sapiens, UniProt Q02156); conditions: cited from earlier work
T1 sequence (Q02156 1-737): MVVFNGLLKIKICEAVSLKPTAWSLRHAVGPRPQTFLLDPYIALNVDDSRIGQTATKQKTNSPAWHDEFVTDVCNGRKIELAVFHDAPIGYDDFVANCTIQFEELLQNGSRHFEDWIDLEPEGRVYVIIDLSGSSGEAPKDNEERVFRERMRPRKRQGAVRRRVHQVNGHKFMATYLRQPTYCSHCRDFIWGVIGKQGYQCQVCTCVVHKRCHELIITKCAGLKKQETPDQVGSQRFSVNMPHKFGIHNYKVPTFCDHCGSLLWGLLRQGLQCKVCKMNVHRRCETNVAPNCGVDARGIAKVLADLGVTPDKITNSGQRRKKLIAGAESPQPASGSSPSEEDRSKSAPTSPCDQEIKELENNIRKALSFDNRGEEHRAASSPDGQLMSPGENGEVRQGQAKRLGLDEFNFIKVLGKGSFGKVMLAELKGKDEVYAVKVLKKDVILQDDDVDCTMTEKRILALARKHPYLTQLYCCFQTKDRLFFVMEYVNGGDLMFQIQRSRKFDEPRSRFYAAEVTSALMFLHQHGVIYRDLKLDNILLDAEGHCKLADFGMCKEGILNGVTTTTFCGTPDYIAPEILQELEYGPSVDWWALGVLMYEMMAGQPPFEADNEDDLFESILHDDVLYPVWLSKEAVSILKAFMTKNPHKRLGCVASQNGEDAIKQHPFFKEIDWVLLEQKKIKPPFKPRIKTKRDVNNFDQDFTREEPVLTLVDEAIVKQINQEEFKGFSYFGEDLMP

[13] = non-ischemic rats, same regimens

CCCCCCCC(=O)OC1C(=CC(=O)OC)CC2CC(CO)OC(=O)CC(O)CCOC(CCCc3ccc(Br)cc3)CC3CCOC(C=CC(C)(C)C1(O)O2)O3 (stereo not shown) [bryolog 5]
Ki [1]: 1.9 nM

CCCCCCCC(=O)OC1C(=CC(=O)OC)CC2CC(CO)OC(=O)CC(O)CCOC(C(C)(C)C)CC3CCOC(C=CC(C)(C)C1(O)O2)O3 (stereo not shown) [bryolog 3]
Ki [1]: 6.5 nM

Cc1ccc(OCC(=O)O)c(OCC(=O)O)c1 [MCDA, 4-Methylcatechol-diacetic acid]
target quadrant ratio in probe test, compound-only vs. control rats [2, 13]: no differences | water maze spatial learning, compound-only vs. control rats [2, 13]: no differences | target quadrant ratio in probe test, ischemic with treatment vs. control rats ([2]; same regimens): no differences | target quadrant ratio in probe test, ischemic with treatment vs. ischemic rats ([2]; same regimens): group differences | water maze spatial learning, ischemic with treatment vs. control rats ([2]; same regimens): remained significant | water maze spatial learning, ischemic with treatment vs. ischemic rats [2]: improved the learning of the ischemic rats

CC1=CC[C@H](C)C(C)(C)[C@@H]1/C=C/C(C)=C/CC[C@@]1(CO)[C@H](CCCO)/C(=C(/C)C=O)CC[C@]1(C)O [Iripallidal]
GI50 (concentration required to inhibit growth by 50%) [3]: from micromolar to nanomolar range

CCCCCCCCc1ccc2c3c(c[nH]c13)C[C@@H](CO)NC(=O)[C@H](C(C)C)N2C [Octylindolactam V]
EC50 [4]: 29 nM

C/C=C(/C)C(=O)O[C@H]1C(C)=C[C@]23C(=O)[C@@H](C=C(CO)[C@@H](O)[C@]12O)[C@H]1[C@@H](C[C@H]3C)C1(C)C [Ingenol-3-angelate]
antitumor activity [5]: possesses antitumor activity

CCCCCCCC(=O)OC1C(=CC(=O)OC)CC2CC(CO)OC(=O)CC(O)CCOC(c3ccccc3)CC3CCOC(C=CC(C)(C)C1(O)O2)O3 (stereo not shown) [bryolog 4]
Ki [1]: 2.3 nM

CC1=C[C@]23C(=O)[C@@H](C=C(COC(=O)c4ccccc4)[C@@H](O)[C@]2(O)[C@H]1OC(=O)c1ccccc1)[C@H]1[C@@H](C[C@H]3C)C1(C)C [Ingenol 3,20-dibenzoate]
Ki [6]: 240 nM

CCCC=CC=CC(=O)OC1C(=CC(=O)OC)CC2CC(C(C)O)OC(=O)CC(O)CC3CC(OC(C)=O)C(C)(C)C(O)(CC4CC(=CC(=O)OC)CC(C=CC(C)(C)C1(O)O2)O4)O3 (stereo not shown) [Bryostatin 1, bryostatin-1]
water maze spatial learning, compound-only vs. control rats [2, 13]: no differences | water maze spatial learning, ischemic with treatment vs. control rats ([2]; same regimens): did not differ statistically from the control rats | water maze spatial learning, ischemic with treatment vs. ischemic rats [2]: greatly improved the performance | main adverse reaction [7]: myalgia | target quadrant preference, Bryostatin-1 alone vs. sham-operated ([8]; 15 μg/m^2): no significant effects | spatial learning, Bryostatin-1 alone vs. sham-operated ([8]; 15 μg/m^2, 9 days after the last dose): did not affect the learning | memory retention test after ischemia ([8]; 15 μg/m^2, probe test 24 hours after last trial): effectively restored memory retention after ischemia to the level of the sham-operated rats | spatial learning impairment, Bryostatin-1+Ischemia vs. Ischemia ([8]; 15 μg/m^2 tail vein, 2 doses/week, 10 doses, from about 24 hours after ischemia, tested 9 days after last dose): restored

C=C(C)C12C[C@@H](COC(=O)c3ccccc3)[C@@]34OC5(O[C@@H]1[C@@H]3C1O[C@]1(CO)[C@@H](O)[C@@]1(O)[C@H]4[C@@H](C(C)CCCCCC[C@H]5O)C(C)[C@@H]1OC(=O)c1ccccc1)O2 (stereo partly shown) [Gnidimacrin]
concentration acting as PKC activator [9]: ≈ 3 nM | inhibition of Cdk2 [10]: 100% | concentrations with potent antitumor activity [11]: 0.1 to 1 nM

CCCCCC1CC1CC1CC1CCCCCCCC(=O)O (stereo not shown) [DCP-LA, 2-[(2-pentylcyclopropyl)methyl] cyclopropaneoctanoic acid]
concentration of maximal effect on PKCε activation [12]: 100 nM
